Consider 17 compounds from ChEMBL document CHEMBL5257035, “Nucleoside Derived Antibiotics to Fight Microbial Drug Resistance: New Utilities for an Established Class of Drugs?” (J Med Chem, 2016).

In test [1] the test system is Enterococcus faecalis. In words: Antimicrobial activity against Enterococcus faecalis 10785 assessed as reduction in microbial growth by broth microdilution method. In kind it is functional.
For test [2], the system named is Staphylococcus aureus. In words: Antimicrobial activity against methicillin-resistant Staphylococcus aureus assessed as reduction in microbial growth by broth microdilution method. It counts as functional.
The test system of test [3] is Escherichia coli. In words: Antibacterial activity against Escherichia coli ATCC 25922 assessed as bacterial growth inhibition measured after 48 hrs by microdilution method. In kind it is functional.
Test [4] addresses T1, Phospho-N-acetylmuramoyl-pentapeptide-transferase (Escherichia coli K-12, UniProt P0A6W3).
T1 sequence (P0A6W3 whole entry): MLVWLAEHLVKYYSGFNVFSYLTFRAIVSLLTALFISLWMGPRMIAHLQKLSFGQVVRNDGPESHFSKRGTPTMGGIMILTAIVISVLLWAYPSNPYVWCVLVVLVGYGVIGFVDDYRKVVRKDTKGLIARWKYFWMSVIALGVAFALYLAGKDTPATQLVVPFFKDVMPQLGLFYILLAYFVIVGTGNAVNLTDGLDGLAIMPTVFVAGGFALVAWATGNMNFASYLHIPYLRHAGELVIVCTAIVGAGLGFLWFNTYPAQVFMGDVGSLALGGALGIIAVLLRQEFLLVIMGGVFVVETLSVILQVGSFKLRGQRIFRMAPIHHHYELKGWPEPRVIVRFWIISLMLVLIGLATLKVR
Description: Inhibition of MraY in Escherichia coli K12.

In test [5] the test system is Mycobacterium kansasii. Description: Antimycobacterial activity against Mycobacterium kansasii assessed as microbial growth reduction. In kind it is functional.
Test [6] has as its system Mycobacterium avium. Description: Antimycobacterial activity against Mycobacterium avium assessed as microbial growth reduction. In kind it is functional.
In test [7] the test system is Mycobacterium intracellulare. In words: Antimycobacterial activity against Mycobacterium intracellulare assessed as microbial growth reduction. In kind it is functional.
The nature of test [8]: Inhibition of Candida albicans chitin synthase.
Test [9] concerns Candida albicans. Description: Inhibition of Candida albicans chitin synthase at 1 uM relative to control.
The test system of test [10] is Cryptococcus neoformans. Description: Antifungal activity against Cryptococcus neoformans assessed as fungal growth inhibition measured after 24 hrs by micro broth dilution method. It counts as functional.
Test [11] has as its system Candida albicans. In words: Antifungal activity against Candida albicans assessed as fungal growth inhibition measured after 24 hrs by micro broth dilution method. In kind it is functional.
Test [12] has as its system Aspergillus fumigatus. In words: Antifungal activity against Aspergillus fumigatus assessed as fungal growth inhibition. In kind it is functional.
In test [13] the test system is Candida albicans. Description: Antifungal activity against Candida albicans B-311 assessed as reduction fungal growth incubated for 16 hrs by microbroth dilution method. In kind it is functional.
In test [14] the test system is Mycolicibacterium smegmatis. Description: Antibacterial activity against Mycobacterium smegmatis SANK75075 assessed as bacterial growth inhibition. It counts as functional.
For test [15], the system named is Candida albicans. In words: Antifungal activity against Candida albicans assessed as inhibition of fungal growth. In kind it is functional.
The subject of test [16] is Aspergillus fumigatus. In words: Antifungal activity against Aspergillus fumigatus assessed as inhibition of fungal growth. In kind it is functional.
For test [17], the system named is Pseudomonas aeruginosa. Description: Antibacterial activity against Pseudomonas aeruginosa assessed as bacterial growth inhibition. In kind it is functional.
Test [18] has as its system Pseudomonas aeruginosa. In words: Antimicrobial activity against Pseudomonas aeruginosa M35 assessed as reduction in microbial growth. It counts as functional.

In brackets after ≈: the same amount, converted by molar mass.

With `COc1ccc(Cn2c(=O)ccn([C@@H]3O[C@H]([C@H](O)[C@H](NCCCNC(=O)[C@@H](N)[C@@H](O)C(C)C)C(=O)OC(C)(C)C)[C@@H](O[Si](C)(C)C(C)(C)C)[C@H]3O[Si](C)(C)C(C)(C)C)c2=O)cc1`, the MIC in test [1] and in [2] was 4 µg/mL each time.

As to `CCCCCCCCCNC[C@@H](O[C@@H]1O[C@H](CN)[C@@H](O)[C@H]1O)[C@H]1O[C@@H](n2ccc(=O)[nH]c2=O)[C@H](O)[C@@H]1O`, the MIC in test [3] was 2.5 µg/mL (≈ 4.71 µM). In [4], this compound displayed an IC50 of 0.33 µM.

In the case of `CCCCCCCCCCCCCC(=O)O[C@@H]1[C@H](OC)[C@@H]([C@@H](O[C@@H]2OC(C(=O)N[C@H]3CCC[C@@H](C)NC3=O)=C[C@@H](O)[C@H]2O)C(N)=O)O[C@H]1n1ccc(=O)[nH]c1=O`, the MIC in test [5], in [6] and in test [7] was 0.063 µg/mL (≈ 0.0794 µM) throughout.

In [8], `O=C(NC[C@@H]1O[C@H](n2ccc(=O)[nH]c2=O)[C@@H](O)[C@H]1O)OCCOC(=O)NC[C@H]1O[C@@H](n2ccc(=O)[nH]c2=O)[C@H](O)[C@@H]1O` came in with an IC50 of 1.1 µM. The inhibition in test [9] was 32%.

As for `Nc1cccc2c1ncn2[C@@H]1O[C@H](CSCCC(=O)O)[C@@H](O)[C@H]1O`, the MIC in test [10], in test [11] and in test [12] was 0.19 µM (≈ 0.0671 µg/mL) throughout.

For `CC(C)C[C@H](N)C(=O)N[C@H](C(=O)N[C@@H](C(=O)O)[C@H]1OC(n2cc(C=O)[nH]c2=O)[C@H](O)[C@@H]1O)[C@H](C)[C@H](O)c1cc(O)ccn1` (stereo partly drawn), the MIC in [13] stood at 83 µg/mL (≈ 136 µM).

Consider `CCCCNC(=O)C1=C[C@@H](O)[C@@H](O)[C@H](O[C@@H](C(N)=O)[C@H]2O[C@@H](n3ccc(=O)[nH]c3=O)[C@H](O)[C@@H]2OC)O1`, for which, in test [14], the MIC turned out to be 12.5 µg/mL (≈ 24.3 µM).

Turning to `Nc1ncnc2c1ncn2[C@@H]1O[C@H](CSCCC(=O)O)[C@@H](O)[C@H]1O`, the MIC in test [10], in test [11] and in test [12] was 0.19 µM (≈ 0.0675 µg/mL) throughout.

In the case of `CCCCCCCCCCCC(=O)O[C@@H]1[C@H](OC)[C@@H]([C@@H](O[C@@H]2OC(C(=O)N[C@H]3CCC[C@@H](C)NC3=O)=C[C@@H](O)[C@H]2O)C(N)=O)O[C@H]1n1ccc(=O)[nH]c1=O`, the MIC in test [5], in test [6] and in test [7] was 0.063 µg/mL (≈ 0.0823 µM) each time.

As to `CCCCCCCCCNC(=O)C1=C[C@@H](O)[C@@H](O)[C@H](O[C@@H](C(N)=O)[C@H]2O[C@@H](n3ccc(=O)[nH]c3=O)[C@H](O)[C@@H]2OC)O1`, the minimum inhibitory concentration (MIC) in test [14] was found to be 12.5 µg/mL (≈ 21.4 µM).

Consider `CCCCCCCCCC(=O)O[C@@H]1[C@H](OC)[C@@H]([C@@H](O[C@@H]2OC(C(=O)N[C@H]3CCC[C@@H](C)NC3=O)=C[C@@H](O)[C@H]2O)C(N)=O)O[C@H]1n1ccc(=O)[nH]c1=O`, for which the MIC in test [5], in test [6] and in test [7] was 0.063 µg/mL (≈ 0.0854 µM) in each case.

The compound `O=C(NC[C@@H]1O[C@H](n2ccc(=O)[nH]c2=O)[C@@H](O)[C@H]1O)OCCOCCOC(=O)NC[C@H]1O[C@@H](n2ccc(=O)[nH]c2=O)[C@H](O)[C@@H]1O` registered an IC50 in test [8] of 11.8 µM. The compound also had an inhibition in test [9] of 45%.

As to `O=C(OC[C@H]1O[C@@H](n2ccc(=O)[nH]c2=O)[C@H](O)[C@@H]1O)c1cc(O)ccc1O`, the minimal inhibitory concentration (MIC) in [15] and in test [16] was 1000 µg/mL (≈ 2630 µM) each time.

With `Nc1ccc(C(=O)OC[C@H]2O[C@@H](n3ccc(=O)[nH]c3=O)[C@H](O)[C@@H]2O)c(O)c1`, the MIC in test [15] and in [16] was 1000 µg/mL (≈ 2640 µM) in each case.

With `CSCC[C@H](NC(=O)NC(Cc1cccc(O)c1)C(=O)O)C(=O)NC(CN(C)C(=O)[C@@H](N)C(Cc1cccc(O)c1)NCC(=O)O)C(=O)N/C=C1/C[C@@H](O)[C@H](N2CCC(=O)NC2=O)O1` (stereo partly drawn), in test [17], the minimum inhibitory concentration (MIC) was 1.5 µg/mL (≈ 1.64 µM).

Turning to `CSCC[C@H](NC(=O)N[C@@H](Cc1cccc(O)c1)C(=O)O)C(=O)NC(CN(C)C(=O)C1Cc2ccc(O)cc2C(C)N1)C(=O)N/C=C1/C[C@@H](O)[C@H](n2ccc(=O)[nH]c2=O)O1` (stereo partly drawn), the minimal inhibitory concentration (MIC) in test [18] turned out to be 6.25 µg/mL.

As for `CO[C@H]1[C@@H](O)[C@H](n2ccc(=O)[nH]c2=O)O[C@@H]1[C@@H](O[C@@H]1OC(C(=O)Nc2ccccc2)=C[C@@H](O)[C@H]1O)C(N)=O`, the MIC in test [14] came out at 6.25 µg/mL (≈ 11.7 µM).
